This note sets out measurements from ChEMBL document CHEMBL1154196, “Synthesis and evaluation of (S,S)-N,N'-bis-[3-(2,2',6,6'-tetramethylbenzhydryloxy)-2-hydroxy-propyl]-ethylenediamine (S2824) analogs with anti-tuberculosis activity” (2009).

Converted amounts (≈) assume the structure as drawn. Bounds are passed on as bounds.

In assay [1] the test system is Mycobacterium tuberculosis. The assay is described as follows: Antitubercular activity against isoniazid, rifampin-resistant Mycobacterium tuberculosis by radiometric BACTEC460 method. The format is functional.
Assay [2] has as its system Mycobacterium tuberculosis. The assay is described as follows: Antitubercular activity against isoniazid, rifampin, ethambutol, streptomycin-resistant Mycobacterium tuberculosis by radiometric BACTEC460 method. The format is functional.

Regarding `Cc1ccc(C(OC[C@H](O)CN2CCN(C[C@@H](O)COC(c3ccc(C)cc3)c3ccc(C)cc3)CC2)c2ccc(C)cc2)cc1`, the MIC in assay [1] and in assay [2] was 6.25 µg/mL (≈ 10 µM) in each case.
Regarding `Cc1ccc(C(OC[C@@H](O)CN2CCCN(C[C@H](O)COC(c3ccc(C)cc3)c3ccc(C)cc3)CC2)c2ccc(C)cc2)cc1`, the figures for the MIC in assay [1] and in assay [2] were 1.56 µg/mL (≈ 2.45 µM) and 0.78 µg/mL (≈ 1.22 µM), respectively.
For `Cc1ccc(C(OC[C@H](O)CN2CCCN(C[C@@H](O)COC(c3ccc(C)cc3)c3ccc(C)cc3)CC2)c2ccc(C)cc2)cc1` the same measures were 1.56 µg/mL (≈ 2.45 µM) and 1.56 µg/mL (≈ 2.45 µM).
For `CC[C@@H](CO)NCCN[C@@H](CC)CO` [ETHAMBUTOL] the same measures were 3.13 µg/mL (≈ 15.3 µM) and above 12.5 µg/mL.
